From the Kinase Knowledgebase extract (Sharma et al. 2016) come the findings set out here.

Structures are written as SMILES.

The target of the assay is PIK3CA (human) (UniProt P42336). The experiment in a line: Assessment of PIK3CA Kinase Activity.
PIK3CA (human), sequence (P42336 whole entry, looked up): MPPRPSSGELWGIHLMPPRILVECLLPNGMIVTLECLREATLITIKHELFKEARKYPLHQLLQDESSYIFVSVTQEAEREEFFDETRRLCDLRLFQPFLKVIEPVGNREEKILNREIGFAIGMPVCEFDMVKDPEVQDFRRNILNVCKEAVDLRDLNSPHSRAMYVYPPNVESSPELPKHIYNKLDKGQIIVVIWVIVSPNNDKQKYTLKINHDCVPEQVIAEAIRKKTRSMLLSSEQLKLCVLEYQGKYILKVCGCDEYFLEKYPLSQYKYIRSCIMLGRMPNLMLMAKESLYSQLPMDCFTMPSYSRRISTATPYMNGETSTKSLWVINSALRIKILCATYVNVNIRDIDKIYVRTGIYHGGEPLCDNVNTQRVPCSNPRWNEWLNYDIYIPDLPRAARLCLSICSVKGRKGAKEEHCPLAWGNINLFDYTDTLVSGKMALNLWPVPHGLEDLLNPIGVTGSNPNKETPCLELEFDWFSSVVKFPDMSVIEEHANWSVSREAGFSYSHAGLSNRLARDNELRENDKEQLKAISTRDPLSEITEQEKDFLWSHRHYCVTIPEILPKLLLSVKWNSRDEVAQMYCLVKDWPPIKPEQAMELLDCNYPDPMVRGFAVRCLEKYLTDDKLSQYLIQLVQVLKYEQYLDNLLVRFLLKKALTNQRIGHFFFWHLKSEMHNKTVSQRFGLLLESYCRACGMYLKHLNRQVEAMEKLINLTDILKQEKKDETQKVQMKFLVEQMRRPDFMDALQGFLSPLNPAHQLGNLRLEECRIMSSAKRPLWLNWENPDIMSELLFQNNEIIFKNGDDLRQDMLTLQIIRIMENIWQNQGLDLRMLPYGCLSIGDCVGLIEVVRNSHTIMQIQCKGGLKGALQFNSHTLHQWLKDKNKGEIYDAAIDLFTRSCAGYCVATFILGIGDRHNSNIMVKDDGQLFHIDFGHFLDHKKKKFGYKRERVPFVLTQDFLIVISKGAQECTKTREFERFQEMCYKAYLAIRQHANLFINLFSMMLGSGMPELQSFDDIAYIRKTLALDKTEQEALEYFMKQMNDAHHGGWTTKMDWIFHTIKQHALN
As a reminder, the IC50 is the concentration that inhibits the measured activity by half. Read a high IC50 as a need for much substance. Molecule `COC[C@@H]1CCCN(C(=O)c2nc3c(s2)CCOc2cc(-c4cn[nH]c4)ccc2-3)C1` displayed an IC50 below 1000 nM.

The molecule `CC(C)c1nn(C)c(=O)n1-c1nc2c(s1)CCOc1cc(-c3cnn(CCO)c3)ccc1-2` yielded a 50% inhibitory concentration (IC50) below 1000 nM.

Molecule `CC(CO)n1ncnc1-c1nc2c(s1)CCOc1cc(-c3cnn(CC(C)(C)O)c3)ccc1-2` (centres undefined) yielded an IC50 below 1000 nM.

Take `CC(C)(O)Cn1cc(-c2ccc3c(c2)OCCc2sc(-c4ncnn4Cc4ccccn4)nc2-3)cn1`: the half-maximal inhibitory concentration (IC50) is below 1000 nM.

In the case of `CC(C)n1ncnc1-c1nc2c(s1)CCOc1cc(C(=O)NCCOCCO)ccc1-2`, the IC50 is below 1000 nM.

`CC(C)n1ncnc1-c1nc2c(s1)CCOc1ccc(C3CN(C(=O)[C@H](C)O)C3)cc1-2`: the IC50 was below 1000 nM.

With `CC(C)n1ncnc1-c1nc2c(s1)CCOc1ccc(-c3cccnc3C(F)(F)F)cc1-2`, the concentration for half-maximal inhibition (IC50) is below 1000 nM.

The molecule `Cc1nc(-c2nc3c(s2)CCOc2cc(CN)ccc2-3)n(C(C)C)n1` registered an IC50 below 1000 nM.

On to `OCCNc1ccc(-c2ccc3c(n2)-c2sc(-c4ncnn4-c4ccc(F)cc4F)cc2CCO3)cn1`, for which the half-inhibitory concentration (IC50) is below 1000 nM.

Molecule `O=C(c1nc2c(s1)CCOc1cc(-c3cn[nH]c3)ccc1-2)N(CCO)C1CCCC1` displayed an IC50 below 1000 nM.

Turning to `CNC(=O)CN1CCC(c2ccc3c(c2)OCCc2sc(-c4ncnn4C(C)C)nc2-3)CC1`, the 50% inhibitory concentration (IC50) was below 1000 nM.

`CC1CN(C(=O)c2nc3c(s2)CCOc2cc(-c4cn[nH]c4)ccc2-3)CCN1` (centres undefined) yielded a half-inhibitory concentration (IC50) below 1000 nM.

Molecule `Cc1ccc(-c2ccc3c(c2)-c2nc(-c4ncnn4C(C)C)sc2CCO3)cn1` registered an IC50 below 1000 nM.

As to `CN1CC(Nc2ccc3c(n2)-c2sc(-c4ncnn4-c4ccc(F)cc4F)cc2CCO3)C1`, the IC50 is below 1000 nM.

`CCN(CC)C(=O)c1nc2c(s1)CCOc1cc(-c3cn[nH]c3)ccc1-2` yielded an IC50 below 1000 nM.

In the case of `CC(C)n1ncnc1-c1nc2c(s1)CCOc1ccc(C3CN(S(=O)(=O)CCO)C3)cc1-2`, the concentration for half-maximal inhibition (IC50) is below 1000 nM.

The molecule `O=C(c1nc2c(s1)CCOc1cc(-c3cn[nH]c3)ccc1-2)N1CCC(O)CC1` yielded an IC50 below 1000 nM.

Molecule `O=C(c1nc2c(s1)CCOc1cc(-c3cn[nH]c3)ccc1-2)N1CCC[C@@H](CO)C1` gave an IC50 below 1000 nM.

Regarding `CC(O)C(=O)N1CC(n2ccnc2-c2nc3c(s2)CCOc2cc(-c4cnn(CC(C)(C)O)c4)ccc2-3)C1` (centres undefined), the 50% inhibitory concentration (IC50) was below 1000 nM.

On to `Cc1ncccc1-c1ccc2c(c1)-c1nc(C(=O)N(CCO)C(C)C)sc1CCO2`, for which the 50% inhibitory concentration (IC50) is below 1000 nM.

For the molecule `COCc1nc(-c2nc3c(s2)CCOc2ccccc2-3)n(C(C)C)n1`, the half-inhibitory concentration (IC50) is below 1000 nM.

`COCCN1CC(c2ccc3c(c2)OCCc2sc(-c4nc(C)nn4C(C)C)nc2-3)C1` had an IC50 below 1000 nM.

As to `OCCNc1ccc2c(n1)-c1sc(-c3ncnn3-c3ccc(F)cc3F)cc1CCO2`, the IC50 was below 1000 nM.

The molecule `COC1CCN(C(=O)c2nc3c(s2)CCOc2cc(-c4cn[nH]c4)ccc2-3)CC1` came in with a concentration for half-maximal inhibition (IC50) below 1000 nM.

`CN(C)C(=O)Cn1cc(-c2ccc3c(c2)OCCc2sc(-c4ncnn4CC(F)(F)F)nc2-3)cn1` showed an IC50 below 1000 nM.

Turning to `CS(=O)(=O)n1cc(-c2ccc3c(c2)OCCc2sc(-c4ncnn4CC(F)(F)F)nc2-3)cn1`, the half-maximal inhibitory concentration (IC50) is below 1000 nM.

Turning to `CC(C)(O)Cn1cc(-c2ccc3c(c2)OCCc2sc(-c4ncnn4Cc4ccncc4)nc2-3)cn1`, the IC50 is below 1000 nM.

Turning to `CC(C)n1ncnc1-c1nc2c(s1)CCOc1ccc(-c3cccn(C)c3=O)cc1-2`, the concentration for half-maximal inhibition (IC50) is below 1000 nM.

For `CC(C)n1c(-c2nc3c(s2)CCOc2cc(-c4cnn(CCO)c4)ccc2-3)nnc1C(F)(F)F`, the half-maximal inhibitory concentration (IC50) is below 1000 nM.

`Fc1ccc(-n2ncnc2-c2nc3c(s2)CCOc2cc(-c4cn[nH]c4)ccc2-3)c(F)c1` came in with a 50% inhibitory concentration (IC50) below 1000 nM.

In turn, `Cc1nc(-c2nc3c(s2)CCOc2cc(CNC(N)=O)ccc2-3)n(C(C)C)n1` came in with an IC50 below 1000 nM.

As to `N#C[C@@H]1CCCN1C(=O)c1nc2c(s1)CCOc1cc(-c3cn[nH]c3)ccc1-2`, the IC50 is below 1000 nM.

Molecule `CN(CCc1ccccn1)C(=O)c1nc2c(s1)CCOc1cc(-c3cn[nH]c3)ccc1-2` yielded an IC50 below 1000 nM.

`Fc1ccc(-n2ncnc2-c2cc3c(s2)-c2nc(-c4ccc(NCCN5CCOCC5)nc4)ccc2OCC3)c(F)c1`: the IC50 was below 1000 nM.

`CC(C)n1ncnc1-c1nc2c(s1)CCOc1cc(-c3cccc(CC(N)=O)c3)ccc1-2` gave an IC50 below 1000 nM.

Regarding `O=C(c1nc2c(s1)CCOc1cc(-c3cn[nH]c3)ccc1-2)N1CCN(CC2CC2)CC1`, the IC50 was below 1000 nM.

`Cc1ccncc1-c1ccc2c(c1)-c1nc(-c3ncnn3C(C)C)sc1CCO2` displayed an IC50 below 1000 nM.

Take `Cc1ncccc1-c1ccc2c(n1)-c1sc(-c3nccn3C(C)C)cc1CCO2`: the half-maximal inhibitory concentration (IC50) is below 1000 nM.

For `O=C1CN(c2ccc3c(n2)-c2sc(-c4ncnn4-c4ccc(F)cc4F)cc2CCO3)CCN1`, the half-maximal inhibitory concentration (IC50) is below 1000 nM.

For the molecule `CC(C)N1CC(c2ccc3c(c2)OCCc2sc(-c4ncnn4C(C)C)nc2-3)C1`, the IC50 was below 1000 nM.

Molecule `COCCNc1ccc(-c2ccc3c(n2)-c2sc(-c4ncnn4-c4ccc(F)cc4F)cc2CCO3)cn1` displayed an IC50 below 1000 nM.

Consider `CC(C)(C)n1nc(N)nc1-c1nc2c(s1)CCOc1cc(-c3cn[nH]c3)ccc1-2`, for which the IC50 is below 1000 nM.

In turn, `CC(C)n1ncnc1-c1nc2c(s1)CCOc1ccc(-c3ccc(S(C)(=O)=O)cc3)cc1-2` yielded a half-maximal inhibitory concentration (IC50) below 1000 nM.

As to `CC(C)n1ncnc1-c1nc2c(s1)CCOc1ccc(C3CN(CCO)C3)cc1-2`, the concentration for half-maximal inhibition (IC50) was below 1000 nM.

Molecule `COCCNC(=O)c1ccc2c(c1)OCCc1sc(-c3ncnn3C(C)C)nc1-2` yielded an IC50 below 1000 nM.

On to `CC1(C)C(=O)NC(=O)N1c1nc2c(s1)CCOc1cc(C3CCNCC3)ccc1-2`, for which the IC50 is below 1000 nM.

As to `O=C(c1nc2c(s1)CCOc1cc(-c3cn[nH]c3)ccc1-2)N1CCC(F)(F)CC1`, the 50% inhibitory concentration (IC50) was below 1000 nM.

Take `CN(C[C@H]1CCCO1)C(=O)c1nc2c(s1)CCOc1cc(-c3cn[nH]c3)ccc1-2`: the concentration for half-maximal inhibition (IC50) is below 1000 nM.

In turn, `O=C(c1nc2c(s1)CCOc1cc(-c3cn[nH]c3)ccc1-2)N1CCC(CO)CC1` had a concentration for half-maximal inhibition (IC50) below 1000 nM.

`CC(C)n1ncnc1-c1nc2c(s1)CCOc1ccc(C(=O)NCCO)cc1-2` had a half-maximal inhibitory concentration (IC50) below 1000 nM.

Consider `CNC(=O)c1ccc2c(c1)OCCc1cc(C(=O)N(C)c3cc(C(=O)N(C)CCO)ccc3Cl)sc1-2`, for which the concentration for half-maximal inhibition (IC50) is below 1000 nM.

Take `CC(CO)Nc1ccc2c(n1)-c1sc(-c3ncnn3-c3ccc(F)cc3F)cc1CCO2` (centres undefined): the half-inhibitory concentration (IC50) was below 1000 nM.

The molecule `CC(C)n1ccnc1-c1nc2c(s1)CCOc1cc(-c3cnn(CCO)c3)ccc1-2` displayed an IC50 below 1000 nM.

Molecule `C[C@@H](O)CNC(=O)c1ccc(Cl)c(N(C)C(=O)c2cc3c(s2)-c2ccc(C(=O)NCCS(C)(=O)=O)cc2OCC3)c1` registered an IC50 below 1000 nM.

Take `Cc1noc(C)c1-c1ccc2c(c1)OCCc1sc(C(=O)N(CCO)C(C)C)nc1-2`: the concentration for half-maximal inhibition (IC50) is below 1000 nM.

`C[C@@H]1CN(c2ccc3c(n2)-c2sc(-c4ncnn4-c4ccc(F)cc4F)cc2CCO3)C[C@H](C)N1C` came in with an IC50 below 1000 nM.

`CC(C)n1ncnc1-c1nc2c(s1)CCOc1cc(C3(F)CCN(CC(=O)N(C)C)CC3)ccc1-2`: the half-inhibitory concentration (IC50) is below 1000 nM.

`CN(C(=O)c1cc2c(s1)-c1ccc(C(=O)NCCS(C)(=O)=O)cc1OCC2)c1cc(C(=O)NCCO)ccc1Cl` yielded an IC50 below 1000 nM.

Regarding `CC(C)(N)Cn1cc(-c2ccc3c(c2)OCCc2sc(-c4ncnn4CC(F)(F)F)nc2-3)cn1`, the concentration for half-maximal inhibition (IC50) was below 1000 nM.

Turning to `CN(C)S(=O)(=O)N1CCN(C(=O)c2nc3c(s2)CCOc2cc(-c4cn[nH]c4)ccc2-3)CC1`, the IC50 is below 1000 nM.

Molecule `CC(=O)Nc1ccc(-c2ccc3c(n2)-c2sc(-c4ncnn4-c4ccc(F)cc4F)cc2CCO3)cn1` yielded a half-maximal inhibitory concentration (IC50) below 1000 nM.

In turn, `CC(C)n1ncc(CO)c1-c1cc2c(s1)-c1nc(Cl)ccc1OCC2` came in with an IC50 below 1000 nM.

As for `O=C(c1nc2c(s1)CCOc1cc(-c3cn[nH]c3)ccc1-2)N1CCN(c2cnccn2)CC1`, the IC50 was below 1000 nM.

Consider `CC(C)n1ncnc1-c1nc2c(s1)CCOc1ccc(C3CN(CC(C)(C)O)C3)cc1-2`, for which the 50% inhibitory concentration (IC50) was below 1000 nM.

Turning to `O=C(c1nc2c(s1)CCOc1cc(-c3cn[nH]c3)ccc1-2)N1CCC(c2ccc(F)cc2F)CC1`, the concentration for half-maximal inhibition (IC50) is below 1000 nM.

Molecule `CC(C)(O)Cn1cc(-c2ccc3c(c2)OCCc2sc(N4C(=O)NCC4(C)C)nc2-3)cn1` came in with a half-inhibitory concentration (IC50) below 1000 nM.

The molecule `FC(F)(F)Cn1ncnc1-c1nc2c(s1)CCOc1cc(-c3cnn(CCN4CCOCC4)c3)ccc1-2` displayed an IC50 below 1000 nM.

`Fc1ccc(-n2ncnc2-c2cc3c(s2)-c2nc(NC4COC4)ccc2OCC3)c(F)c1`: the half-inhibitory concentration (IC50) is below 1000 nM.

The molecule `Cc1c[nH]c(=O)c(-c2ccc3c(c2)-c2nc(-c4ncnn4C(C)C)sc2CCO3)c1` yielded an IC50 below 1000 nM.

The molecule `CC(C)(C)C1CCN(C(=O)c2nc3c(s2)CCOc2cc(-c4cn[nH]c4)ccc2-3)CC1` registered an IC50 below 1000 nM.

For `CN1CCN(CCNc2ccc3c(n2)-c2sc(-c4ncnn4-c4ccc(F)cc4F)cc2CCO3)CC1`, the half-inhibitory concentration (IC50) was below 1000 nM.

With `COc1ncccc1-c1ccc2c(c1)-c1nc(-c3ncnn3C(C)C)sc1CCO2`, the half-inhibitory concentration (IC50) is below 1000 nM.

The molecule `OCCn1cc(-c2ccc3c(c2)OCCc2sc(-c4ncnn4Cc4ccncc4)nc2-3)cn1` gave a half-maximal inhibitory concentration (IC50) below 1000 nM.

Consider `CN(C[C@H](O)c1ccccc1)C(=O)c1nc2c(s1)CCOc1cc(-c3cn[nH]c3)ccc1-2`, for which the IC50 was below 1000 nM.

On to `CC(C)n1ncnc1-c1cc2c(s1)-c1ccc(-c3cccc(S(C)(=O)=O)c3)cc1OCC2`, for which the IC50 was below 1000 nM.

The molecule `Fc1ccc(-n2ncnc2-c2cc3c(s2)-c2nc(NCC4CCCC4)ccc2OCC3)c(F)c1` came in with an IC50 below 1000 nM.

Molecule `COc1cncc(-c2ccc3c(c2)-c2nc(-c4ncnn4C(C)C)sc2CCO3)c1` gave an IC50 below 1000 nM.

Take `O=C(c1nc2c(s1)CCOc1cc(-c3cn[nH]c3)ccc1-2)N1CC(F)(F)C1`: the half-maximal inhibitory concentration (IC50) was below 1000 nM.

For `CC(C)n1ncnc1-c1nc2c(s1)CCOc1ccc(-c3cccn(CCN4CCOCC4)c3=O)cc1-2`, the IC50 is below 1000 nM.

In turn, `Cc1nc(N)ncc1-c1ccc2c(c1)-c1nc(C(=O)N(CCO)C(C)C)sc1CCO2` came in with a 50% inhibitory concentration (IC50) below 1000 nM.

On to `CC(C)N(CCO)C(=O)c1nc2c(s1)CCOc1cc(-c3cnn(CC(C)(C)O)c3)ccc1-2`, for which the concentration for half-maximal inhibition (IC50) is below 1000 nM.

Molecule `CC(C)n1ncnc1-c1nc2c(s1)CCOc1cc(-c3cnc(CO)n3C)ccc1-2` showed an IC50 below 1000 nM.

Molecule `O=C(c1nc2c(s1)CCOc1cc(-c3cn[nH]c3)ccc1-2)N1CCCNCC1` had an IC50 below 1000 nM.

Molecule `Cc1cc(-c2ccc3c(n2)-c2sc(-c4ncnn4-c4ccc(F)cc4F)cc2CCO3)cnc1F` gave a 50% inhibitory concentration (IC50) below 1000 nM.
